According to PMC11750672, “The in vivo metabolic pathway of Deg-AZM and in vitro investigations into the contribution of drug metabolizing enzymes and drug transporters in the drug interactions of Deg-AZM, a clinical-stage new transgelin agonist” (Frontiers in Pharmacology, 2025):

Experiments:
[1] = system: Caco-2 cell monolayer; assay: Bidirectional transport in Caco-2 cell monolayer; assay type: in vitro ADME, human; conditions: 2, 10 and 50 μM, intake direction
Description: (§1) The human colon adenocarcinoma Caco-2 cell line was provided by Institute of Basic Medicine, Chinese Academy of Medical Sciences (Beijing, China). Caco-2 cells were cultured in a high sugar DMEM medium containing 10% (v/v) fetal bovine serum at 37°C and 5% CO2 incubator. Caco-2 cells (2.5 ×10^5/mL) was inoculated into Transwell polycarbonate membrane 12 well plate. The culture medium was changed every 2 days for the first 14 days, and then every day. After 21 consecutive days, fully differentiated cell monolayers were obtained for drug transport assays.
(§2) Transepithelial electrical resistance (TEER) was used to indicate monolayer integrity. The electrode of the Millcell ERS-2 voltammeter was placed in HBSS solution for 20 min to pre-balance. At the same time, the culture medium was removed from the Transwell culture plate, 0.5 mL of pre-heated HBSS solution was added into the Apical (AP) of transwell, 1.5 mL of pre-heated HBSS solution was added into the Basolateral (BL) of transwell. After that, the transwell was balanced at 37°C for 20 min and then replaced the HBSS solution with the pre-heated HBSS solution, the TEER value was measured finally. Caco-2 cell monolayers with TEER >350 Ω cm^2 which means that the cells have formed a tight monolayer, were used for the experiment. The TEER value was calculated according to the following formula: TEER=TEERT ‐ TEERc×A where TEERT represented the TEER value (Ω) of the measured Transwell chamber with Caco-2 cells, TEERC was the TEER value (Ω) of the transwell chamber in the control group, and A was the membrane area of the transwell cavity (1.12 cm^2 in this experiment).
(§3) In order to evaluate the usability of the Transwell model research, [^3H] Propranolol (0.5 μCi/mL) and [^14C] PEG4000 (1 μCi/mL) served as high-permeability and impermeability controls to verify the uptake direction on Caco-2 cell monolayer, respectively. Rhodamine 123 was used as a positive control for efflux mechanism in bidirectional transport assay on Caco-2 cell monolayer.
(§4) The transmembrane permeability of Deg-AZM (2, 10 or 50 µM) and the potential to inhibit P-gp by Deg-AZM (2, 10 or 50 µM) were evaluated using Caco-2 cell monolayer both apical-to-basolateral (A-B) and basolateral-to-apical (B-A) directions at 37°C for 1 h, the experiments were conducted using quinidine (50 μM) as the inhibitor for P-gp. At the end of incubation, receiver and donor samples were both diluted by assay buffer and analyzed by LC-MS/MS.

[2] = Bidirectional transport in Caco-2 cell monolayer; assay type: in vitro ADME, human; conditions: human, Caco-2, without quinidine
Description: as §1, §2, §3, §4

[3] = system: inactivated monomeric enzyme; assay: Recombinant CYPs phenotyping assay, inactivated enzyme control; assay type: in vitro ADME, human; conditions: control group with inactivated monomeric enzyme, 1.5 h
Description: (§5) Deg-AZM (1 μM) was treated with pooled NADPH (1 mM) and recombinant CYPs (rCYP1A2, rCYP2B6, rCYP2C8, rCYP2C9, rCYP2C19, rCYP2D6, and rCYP3A4, purchased from Research Institute for Liver Diseases Co. Ltd., Shanghai) at 25 pmol/mL for 90 min. The isoform-selective probe substrates served as positive controls (same as the positive controls in HLM phenotyping assays).

[4] = system: pooled HLM; assay: HLM phenotyping assay, control group and positive control systems; assay type: in vitro ADME, human; conditions: 1 μM, HLM 0.5 mg/mL, NADPH, 90 min, control group without inhibitors
Description: (§6) Deg-AZM (1 μM) was treated with pooled HLM (0.5 mg/mL) and NADPH (1 mM) for 90 min with or without seven specific inhibitors (10 µM furafylline for CYP1A2, 10 µM ticlopidine for CYP2B6, 5 µM montelukast for CYP2C8, 10 µM sulfaphenazole for CYP2C9, 10 µM ticlopidine for CYP2C19, 2.5 µM quinidine for CYP2D6, 1 µM ketoconazole for CYP3A). Isoform-selective probe substrates, 10 µM phenacetin for CYP1A2, 20 µM bupropion for CYP2B6, 2 µM amodiaquine for CYP2C8, 5 µM diclofenac for CYP2C9, 20 µM S-mephenytoin for CYP2C19, 5 µM bufuralol for CYP2D6, 2 µM midazolam for CYP3A4, were used as positive controls.

[5] = system: CYP2B6; assay: CYP induction (mRNA, qPCR) in human hepatocytes; conditions: for CYP2B6 induction, % of PC: PC phenobarbital 1 mM
From the text: After culture and complete induction, total mRNA was extracted by TRNzol RNA Extraction Kit (purchased from Tiangen Biochemical Technology Co., Ltd., Beijing). The RNA was reverse transcribed into cDNA according to the instructions of the Transcriptor First Strand cDNA Synthesis Kit (purchased from Roche, Switzerland). Using reverse transcribed cDNA as a template, amplifying the internal reference genes of β-Actin of the sample and target genes of CYP1A2, CYP2B6, and CYP3A4 respectively to compare the expression differences.

[6] = system: CYP3A; assay: HLM phenotyping assay with CYP3A inhibitor ketoconazole; assay type: in vitro ADME, human; conditions: 1 μM, HLM 0.5 mg/mL, NADPH, 90 min, with 1 µM ketoconazole
Description: as §6

[7] = molecular target: T1, rCYP3A4 (Homo sapiens, UniProt P08684); assay: Recombinant CYPs phenotyping assay; assay type: in vitro ADME; conditions: 1 μM, 1.5 h
T1 construct: purchased Research Institute for Liver Diseases Co. Ltd., Shanghai
T1 sequence (P08684 whole entry): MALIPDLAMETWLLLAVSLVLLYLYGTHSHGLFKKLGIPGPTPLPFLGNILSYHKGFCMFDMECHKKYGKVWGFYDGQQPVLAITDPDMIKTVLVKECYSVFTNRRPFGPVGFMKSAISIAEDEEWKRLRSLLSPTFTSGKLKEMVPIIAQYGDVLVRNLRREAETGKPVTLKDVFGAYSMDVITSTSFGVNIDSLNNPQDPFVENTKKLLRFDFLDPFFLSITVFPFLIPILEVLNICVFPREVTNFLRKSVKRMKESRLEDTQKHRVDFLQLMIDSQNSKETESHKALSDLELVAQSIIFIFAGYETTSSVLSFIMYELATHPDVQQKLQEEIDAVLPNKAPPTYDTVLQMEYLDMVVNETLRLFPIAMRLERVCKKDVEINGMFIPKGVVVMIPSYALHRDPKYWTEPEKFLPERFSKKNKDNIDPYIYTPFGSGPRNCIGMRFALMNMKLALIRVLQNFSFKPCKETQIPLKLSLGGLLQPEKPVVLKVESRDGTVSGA
Description: as §5

[8] = molecular target: T2, CYP2C9 (Homo sapiens, UniProt P11712); assay: HLM phenotyping assay with CYP2C9 inhibitor sulfaphenazole; assay type: in vitro ADME; conditions: 1 μM, HLM 0.5 mg/mL, NADPH, 90 min, with 10 µM sulfaphenazole
T2 construct: from tissue; host or cells: human liver microsomes
T2 sequence (P11712 whole entry): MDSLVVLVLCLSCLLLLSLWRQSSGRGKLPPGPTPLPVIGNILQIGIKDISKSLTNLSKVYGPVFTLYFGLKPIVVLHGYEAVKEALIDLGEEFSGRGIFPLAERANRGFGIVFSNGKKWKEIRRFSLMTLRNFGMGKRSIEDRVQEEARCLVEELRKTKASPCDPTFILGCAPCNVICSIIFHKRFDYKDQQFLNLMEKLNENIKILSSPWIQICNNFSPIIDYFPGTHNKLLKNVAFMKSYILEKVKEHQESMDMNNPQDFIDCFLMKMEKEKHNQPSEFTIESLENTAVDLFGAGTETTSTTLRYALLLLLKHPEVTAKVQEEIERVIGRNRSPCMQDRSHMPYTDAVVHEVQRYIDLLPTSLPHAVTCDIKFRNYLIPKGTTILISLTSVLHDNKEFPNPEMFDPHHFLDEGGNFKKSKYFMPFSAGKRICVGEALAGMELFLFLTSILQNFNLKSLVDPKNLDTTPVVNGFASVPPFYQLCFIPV
Description: as §6

[9] = system: human liver microsomes; design: method as in Gu et al., 2024; conditions: ref Gu et al., 2024; cited from earlier work

Papp A→B at 1 h, 2 μM ([2]; 2 μM, 37°C 1 h, n = 3): 0.326 ± 0.0481 ×10⁻⁶ cm/s
Papp B→A at 1 h, 2 μM ([2]; 2 μM, 37°C 1 h, n = 3): 5.27 ± 0.771 ×10⁻⁶ cm/s
efflux ratio at 1 h, 2 μM ([2]; 2 μM, read-out: ER): 16.2
Papp A→B at 1 h, 10 μM ([2]; 10 μM, 37°C 1 h, n = 3): 0.302 ± 0.0416 ×10⁻⁶ cm/s
Papp B→A at 1 h, 10 μM ([2]; 10 μM, 37°C 1 h, n = 3): 3.7 ± 0.485 ×10⁻⁶ cm/s
efflux ratio at 1 h, 10 μM ([2]; 10 μM, read-out: ER): 12.2
Papp A→B at 1 h, 50 μM ([2]; 50 μM, 37°C 1 h, n = 3): 0.316 ± 0.0201 ×10⁻⁶ cm/s
Papp B→A at 1 h, 50 μM ([2]; 50 μM, 37°C 1 h, n = 3): 3.16 ± 0.401 ×10⁻⁶ cm/s
efflux ratio at 1 h, 50 μM ([2]; 50 μM, read-out: ER): 10
Residual proportion of Deg-AZM [3]: 107%
Deg-AZM remaining [4]: 45.7%
CYP2B6 induction, % of PC ([5]; 5 μM, batch HUB): −0.466%
CYP2B6 induction, % of PC ([5]; 5 μM, batch LHuf 17905B): 6.61%
CYP2B6 induction, % of PC ([5]; 5 μM, batch MWB): 4.39%
CYP2B6 mRNA induction, times of control group ([5]; 5 μM, hepatocyte batch HUB): 0.942
CYP2B6 mRNA induction, times of control group ([5]; 5 μM, hepatocyte batch LHuf 17905B): 1.61
CYP2B6 mRNA induction, times of control group ([5]; 5 μM, hepatocyte batch MWB): 1.60
CYP2B6 induction, % of PC ([5]; 25 μM, batch HUB): 0.0278%
CYP2B6 induction, % of PC ([5]; 25 μM, batch LHuf 17905B): 5.00%
CYP2B6 induction, % of PC ([5]; 25 μM, batch MWB): 6.09%
CYP2B6 mRNA induction, times of control group ([5]; 25 μM, hepatocyte batch HUB): 1.00
CYP2B6 mRNA induction, times of control group ([5]; 25 μM, hepatocyte batch LHuf 17905B): 1.46
CYP2B6 mRNA induction, times of control group ([5]; 25 μM, hepatocyte batch MWB): 1.83
CYP2B6 induction, % of PC ([5]; 100 μM, batch HUB): 2.97%
CYP2B6 induction, % of PC ([5]; 100 μM, batch LHuf 17905B): 19.8%
CYP2B6 induction, % of PC ([5]; 100 μM, batch MWB): 24.3%
CYP2B6 mRNA induction, times of control group ([5]; 100 μM, hepatocyte batch HUB): 1.37
CYP2B6 mRNA induction, times of control group ([5]; 100 μM, hepatocyte batch LHuf 17905B): 2.84
CYP2B6 mRNA induction, times of control group ([5]; 100 μM, hepatocyte batch MWB): 4.33
Induction effect on CYP2B6 (conclusion) ([5]; 5, 25, and 100 µM, three batches of human hepatocytes): has an induction effect
Deg-AZM remaining [6]: 93.4%
Average residual proportion of Deg-AZM ([7]; 25 pmol/mL CYP3A4 monomeric enzyme): 75.9%
Elimination proportion of Deg-AZM ([7]; CYP3A4 monomeric enzyme): greater than 15%
Deg-AZM remaining [8]: 67.5%
Structure (SMILES): CCC1OC(=O)C(C)C(O)C(C)C(O)C(C)(O)CC(C)CN(C)C(C)C(O)C1(C)O (stereo not drawn) [Deg-AZM, Deglycosylated azithromycin]
Permeability classification [1]: low permeability drug with poor transmembrane ability
T1/2 [9]: 46.5 min
